Test results taken from the CheMixHub ionic liquid set.
± gives the uncertainty stated by the source.

Assay: xn = mol fraction of the nth substance listed

CCCO + CCCC[n+]1ccn(C)c1.O=S(=O)([N-]S(=O)(=O)C(F)(F)F)C(F)(F)F
Details | viscosity [mPa·s]
298 K, 100 kPa, x2 = 0 | 1.929 ± 0.011

CCCO + CC[n+]1ccn(C)c1.N#C[S-]
101 kPa, x2 = 0
Details | viscosity [mPa·s]
283.15 K | 2.78 ± 0.07
293.15 K | 2.18 ± 0.07
303.15 K | 1.72 ± 0.07
313.15 K | 1.36 ± 0.07
323.15 K | 1.11 ± 0.07

CCOC(=O)C[n+]1ccn(C)c1.[Cl-] + NC(N)=O
101 kPa
Details | electrical conductivity, 298 K [S/m] | electrical conductivity, 308 K [S/m] | electrical conductivity, 318 K [S/m] | electrical conductivity, 328 K [S/m] | electrical conductivity, 338 K [S/m] | viscosity, 298.15 K [mPa·s]
x1 = 0.4945 | 0.282 ± 0.006 | 0.347 ± 0.007 | 0.414 ± 0.009 | 0.489 ± 0.01 | 0.602 ± 0.012 | 567 ± 31
x1 = 0.5947 | 0.346 ± 0.007 | 0.433 ± 0.009 | 0.51 ± 0.01 | 0.607 ± 0.012 | 0.722 ± 0.015 | 482 ± 25
x1 = 0.7459 | 0.419 ± 0.009 | 0.525 ± 0.011 | 0.631 ± 0.013 | 0.741 ± 0.015 | 0.883 ± 0.018 | 415 ± 20
x1 = 1 | 0.509 ± 0.01 | 0.636 ± 0.013 | 0.764 ± 0.016 | 0.916 ± 0.019 | 1.06 ± 0.022 | 349 ± 16

CC(=O)[O-].CC[n+]1ccn(C)c1 + O=C[C@H](O)[C@@H](O)[C@H](O)[C@H](O)CO
100 kPa
Details | viscosity [mPa·s]
282.5 K, x2 = 0.009453 | 407 ± 30
282.5 K, x2 = 0.02839 | 517 ± 39
312.5 K, x2 = 0.1429 | 419 ± 31
332.2 K, x2 = 0.1429 | 123 ± 8
373.1 K, x2 = 0.095 | 19 ± 1

CC(=O)[O-].CC[n+]1ccn(C)c1 + [Cl-].[NH4+]
101 kPa, x2 = 0
Details | electrical conductivity [S/m] | viscosity [mPa·s]
308.15 K | 0.473 ± 0.0095 | 71.3 ± 4.6
318.15 K | 0.76 ± 0.015 | 44.2 ± 2.9

CC[n+]1ccn(C)c1C.O=S(=O)([N-]S(=O)(=O)C(F)(F)F)C(F)(F)F + CC1COC(=O)O1
101.3 kPa
Details | viscosity [mPa·s]
303.15 K, x1 = 0.203 | 5.35 ± 0.11
303.15 K, x1 = 0.5825 | 20.07 ± 0.42
313.15 K, x1 = 0.7004 | 19.96 ± 0.42
318.15 K, x1 = 0.3994 | 7.33 ± 0.15
318.15 K, x1 = 0.5149 | 10.82 ± 0.23
318.15 K, x1 = 0.8032 | 21.86 ± 0.46
323.15 K, x1 = 0.1025 | 2.411 ± 0.051
323.15 K, x1 = 0.5149 | 9.41 ± 0.2
323.15 K, x1 = 0.7004 | 15.48 ± 0.32
328.15 K, x1 = 0.203 | 3.199 ± 0.067
328.15 K, x1 = 0.8032 | 16.86 ± 0.35
333.15 K, x1 = 0.3994 | 5.29 ± 0.11
338.15 K, x1 = 0.3078 | 3.726 ± 0.078
343.15 K, x1 = 0.3994 | 4.376 ± 0.092
343.15 K, x1 = 0.5825 | 6.93 ± 0.15
343.15 K, x1 = 0.8903 | 13.67 ± 0.29
348.15 K, x1 = 0.1025 | 1.651 ± 0.035
348.15 K, x1 = 0.7004 | 8.13 ± 0.17

CC(=O)[O-].CC[n+]1ccn(C)c1 + CS(C)=O
298.1 K, 100 kPa
Details | electrical conductivity [S/m]
x1 = 0.108 | 0.94 ± 0.04
x1 = 0.653 | 0.65 ± 0.03

CC[N+](CC)(CC)CC.[Cl-] + CNCCO
101.3 kPa
Details | viscosity [mPa·s]
293.15 K, x1 = 0.1413 | 23.7 ± 2.4
303.15 K, x1 = 0.1114 | 14.3 ± 1.4
308.15 K, x1 = 0.09139 | 11.4 ± 1.1
313.15 K, x1 = 0.1413 | 10.3 ± 1
318.15 K, x1 = 0.1413 | 8.78 ± 0.88
323.15 K, x1 = 0.1114 | 7.1 ± 0.71
323.15 K, x1 = 0.1413 | 7.56 ± 0.76
328.15 K, x1 = 0.09139 | 5.45 ± 0.55

CCCn1cc[n+](C)c1.[Br-] + CC(=O)N(C)C
298.15 K, 101 kPa
Details | viscosity [mPa·s]
x1 = 0.01714 | 1.124 ± 0.024
x2 = 0.9358 | 1.653 ± 0.036
x2 = 0.9583 | 1.383 ± 0.03

Cn1cc[n+](CCC(=O)O)c1.[Cl-] + O
viscosity [mPa·s], 100 kPa
Details | x1 = 0.0009214 | x1 = 0.001799 | x1 = 0.003593 | x1 = 0.005399 | x1 = 0.00717 | x1 = 0.008993
293.15 K | 1.006 ± 0.012 | 1.022 ± 0.012 | 1.056 ± 0.012 | 1.092 ± 0.013 | 1.128 ± 0.013 | 1.167 ± 0.014
298.15 K | 0.893 ± 0.01 | 0.907 ± 0.011 | 0.937 ± 0.011 | 0.966 ± 0.011 | 0.995 ± 0.012 | 1.03 ± 0.012
303.15 K | 0.802 ± 0.009 | 0.814 ± 0.01 | 0.839 ± 0.01 | 0.865 ± 0.01 | 0.89 ± 0.011 | 0.922 ± 0.011
308.15 K | 0.726 ± 0.009 | 0.735 ± 0.009 | 0.759 ± 0.009 | 0.783 ± 0.009 | 0.807 ± 0.01 | 0.831 ± 0.01
313.15 K | 0.658 ± 0.008 | 0.668 ± 0.008 | 0.689 ± 0.008 | 0.711 ± 0.008 | 0.73 ± 0.009 | 0.75 ± 0.009
